Assay results as given in patent publication US8883963B2 (Cadila Healthcare Limited, priority 2007, dated 2014).

How the values were obtained:
[1] = test system: C57BL/6J mice (mild hyperglycemic); test: In vivo glucose reduction, acute single dose 120-min time-course, i.p. route; design: species or system mouse; unit not given here; conditions: male C57BL/6J mice
Description: All the animal experiments were carried out according to the internationally valid guidelines following approval by the ‘Zydus Research Center animal ethical committee’.
Two days prior to the study, the animals were randomised and divided into 5 groups (n=6), based upon their fed glucose levels. On the day of experiment, food was withdrawn from all the cages, water was given ad-libitum and were kept for overnight fasting. Vehicle (normal saline)/test/standard compounds were administered intraperitoneally (i.p.) or orally, on a body weight basis.
(§1) Blood samples were centrifuged and the separated serum was immediately subjected for the glucose estimation. Serum for insulin estimation was stored at −70° C. until used for the insulin estimation. The glucose estimation was carried out with DPEC-GOD/POD method (Ranbaxy Fine Chemicals Limited, Diagnostic division, India), using Spectramax-190, in 96-microwell plate reader (Molecular devices Corporation, Sunnyvale, Calif.). […] The AUC and BCAUC obtained from graphs were analyzed for one way ANOVA, followed by Dunnett's post test, using Graph Pad prism software. Furthermore, the insulin estimation was carried out using rat/mouse insulin ELISA kit (Linco research, Missouri USA).

[2] = test system: C57BL/6J mice (mild hyperglycemic); test: In vivo glucose reduction, acute single dose 120-min time-course, oral route; design: species or system mouse; unit not given here; conditions: male C57BL/6J mice
Description: Acute single dose 120-min time-course experiments were carried out in male C57BL/6J or db/db mice, age 8-12 weeks, bred in-house. Animals were housed in groups of 6 animals per cage, for a week, in order to habituate them to vivarium conditions (25±4° C., 60-65% relative humidity, 12:12 h light:dark cycle, with lights on at 7.30 am). All the animal experiments were carried out according to the internationally valid guidelines following approval by the ‘Zydus Research Center animal ethical committee’.
Two days prior to the study, the animals were randomised and divided into 5 groups (n=6), based upon their fed glucose levels. On the day of experiment, food was withdrawn from all the cages, water was given ad-libitum and were kept for overnight fasting. Vehicle (normal saline)/test/standard compounds were administered intraperitoneally (i.p.) or orally, on a body weight basis. Soon after the 0 min. blood collection from each animal, the subsequent blood collections were done at 30, 60 and 120 or up to 240 min., via retro-orbital route, under light ether anesthesia (Chen, D., et al., Diabetes Obesity Metabolism, 2005, 7, 307. Kim, J. G. et al., Diabetes, 2003, 52, 751).
as §1, with “USA). Changes in the blood glucose levels, at 0, 30, 60 and 120 min, with selected peptidomimetics are shown in Table 7 (via ip route of administration) and Table 8 (via oral route of administration) respectively.” for “USA).”

Row | Compound | blood glucose levels ([1]; 50 nM/kg i.p., 0 min) | blood glucose levels ([1]; 50 nM/kg i.p., 30 min) | blood glucose levels ([1]; 50 nM/kg i.p., 60 min) | blood glucose levels ([1]; 50 nM/kg i.p., 120 min) | blood glucose levels ([2]; 2 μM/kg oral, 0 min) | blood glucose levels ([2]; 2 μM/kg oral, 30 min) | blood glucose levels ([2]; 2 μM/kg oral, 60 min) | blood glucose levels ([2]; 2 μM/kg oral, 120 min) | blood glucose levels ([1]; 30 nM/kg i.p., 0 min) | blood glucose levels ([1]; 30 nM/kg i.p., 30 min) | blood glucose levels ([1]; 30 nM/kg i.p., 60 min) | blood glucose levels ([1]; 30 nM/kg i.p., 120 min) | further results
1 | CCc1cc(OC)ccc1-c1ccc(CC(NC(=O)[C@H](CC(=O)O)NC(=O)[C@H](CO)NC(=O)[C@@H](NC(=O)C(C)(Cc2ccccc2F)NC(=O)[C@@H](NC(=O)CNC(=O)C(CCC#N)NC(=O)C(C)(C)NC(=O)[C@@H](N)Cc2c[nH]cn2)[C@H](C)O)[C@H](C)O)C(=O)NC(CCCc2ccccc2F)C(N)=O)cc1 (single isomer, unassigned) [Seq. ID. 116] | 184 ± 5.0 | 122 ± 3.8 | 128 ± 2.1 | 149 ± 2.3 | 185 ± 2.1 | 115 ± 2.8 | 112 ± 4.9 | 111 ± 2.2 | – | – | – | – | –
2 | CCc1cc(OC)ccc1-c1ccc(CC(NC(=O)[C@H](CC(=O)O)NC(=O)[C@H](CO)NC(=O)[C@@H](NC(=O)C(C)(Cc2ccccc2F)NC(=O)[C@@H](NC(=O)CNC(=O)C(CCC#N)NC(=O)C(C)(C)NC(=O)[C@@H](N)Cc2c[nH]cn2)[C@@H](C)O)[C@H](C)O)C(=O)NC(CCCc2ccccc2F)C(N)=O)cc1 (single isomer, unassigned) [Seq. ID. 120] | – | – | – | – | 184 ± 2.5 | 115 ± 1.6 | 113 ± 3.2 | 110 ± 2.4 | 182 ± 5.1 | 118 ± 2.1 | 116 ± 2.2 | 118 ± 2.4 | –
3 | CCc1cc(OC)ccc1-c1ccc(CC(NC(=O)[C@H](CC(=O)O)NC(=O)[C@H](CO)NC(=O)[C@@H](NC(=O)C(C)(Cc2ccccc2F)NC(=O)[C@@H](NC(=O)CNC(=O)C(CCC#N)NC(=O)C(C)(C)NC(=O)[C@@H](N)Cc2c[nH]cn2)[C@H](C)O)[C@H](C)O)C(=O)N(C)C(CCCc2ccccc2)C(N)=O)cc1 (single isomer, unassigned) [Seq. ID. 130] | – | – | – | – | 183 ± 2.4 | 116 ± 3.1 | 112 ± 4.8 | 110 ± 2.5 | 181 ± 5.2 | 119 ± 2.6 | 117 ± 2.1 | 119 ± 2.3 | –
4 | CCc1cc(OC)ccc1-c1ccc(CC(C(=O)N(C)C(CCCc2ccccc2)C(N)=O)N(C)C(=O)[C@H](CC(=O)O)NC(=O)[C@H](CO)NC(=O)[C@@H](NC(=O)C(C)(Cc2ccccc2F)NC(=O)[C@@H](NC(=O)CNC(=O)C(CCC#N)NC(=O)C(C)(C)NC(=O)[C@@H](N)Cc2c[nH]cn2)[C@H](C)O)[C@H](C)O)cc1 (single isomer, unassigned) [Seq. ID. 142] | – | – | – | – | 185 ± 2.3 | 115 ± 3.8 | 113 ± 4.9 | 109 ± 2.2 | 183 ± 4.9 | 117 ± 2.5 | 116 ± 2.3 | 119 ± 2.0 | –
5 | CCc1cc(OC)ccc1-c1ccc(CC(C(=O)N(C)C(CCCc2ccccc2)C(N)=O)N(C)C(=O)[C@H](CC(=O)O)N(C)C(=O)[C@H](CO)NC(=O)[C@@H](NC(=O)C(C)(Cc2ccccc2F)NC(=O)[C@@H](NC(=O)CNC(=O)C(CCC#N)NC(=O)C(C)(C)NC(=O)[C@@H](N)Cc2c[nH]cn2)[C@H](C)O)[C@H](C)O)cc1 (single isomer, unassigned) [Seq. ID. 154] | – | – | – | – | 181 ± 2.5 | 117 ± 3.3 | 112 ± 4.0 | 108 ± 2.9 | 181 ± 4.1 | 117 ± 3.8 | 117 ± 3.0 | 117 ± 1.6 | –
6 | CCc1cc(OC)ccc1-c1ccc(CC(NC(=O)[C@H](CC(=O)O)NC(=O)[C@H](CO)NC(=O)[C@@H](NC(=O)C(C)(Cc2ccccc2F)NC(=O)[C@@H](NC(=O)CNC(=O)C(CCC#N)NC(=O)C(C)(C)NC(=O)[C@@H](N)Cc2c[nH]cn2)[C@H](C)O)[C@H](C)O)C(=S)NC(CCCc2ccccc2F)C(N)=O)cc1 (single isomer, unassigned) [Seq. ID. 168] | – | – | – | – | – | – | – | – | – | – | – | – | blood glucose levels ([1]; 20 nM/kg i.p., 0 min): 182 ± 3.3; blood glucose levels ([1]; 20 nM/kg i.p., 30 min): 120 ± 3.6; blood glucose levels ([1]; 20 nM/kg i.p., 60 min): 127 ± 3.4; blood glucose levels ([1]; 20 nM/kg i.p., 120 min): 145 ± 2.1; blood glucose levels ([2]; 1.5 μM/kg oral, 0 min): 183 ± 2.0; blood glucose levels ([2]; 1.5 μM/kg oral, 30 min): 117 ± 1.1; blood glucose levels ([2]; 1.5 μM/kg oral, 60 min): 112 ± 1.1; blood glucose levels ([2]; 1.5 μM/kg oral, 120 min): 110 ± 1.8
7 | CCc1cc(OC)ccc1-c1ccc(CC(NC(=S)[C@H](CC(=O)O)NC(=O)[C@H](CO)NC(=O)[C@@H](NC(=O)C(C)(Cc2ccccc2F)NC(=O)[C@@H](NC(=O)CNC(=O)C(CCC#N)NC(=O)C(C)(C)NC(=O)[C@@H](N)Cc2c[nH]cn2)[C@H](C)O)[C@H](C)O)C(=S)NC(CCCc2ccccc2F)C(N)=O)cc1 (single isomer, unassigned) [Seq. ID. 180] | – | – | – | – | 184 ± 2.2 | 118 ± 3.3 | 112 ± 4.4 | 110 ± 2.9 | – | – | – | – | blood glucose levels ([1]; 20 nM/kg i.p., 0 min): 180 ± 3.1; blood glucose levels ([1]; 20 nM/kg i.p., 30 min): 122 ± 3.9; blood glucose levels ([1]; 20 nM/kg i.p., 60 min): 129 ± 2.2; blood glucose levels ([1]; 20 nM/kg i.p., 120 min): 140 ± 2.9
8 | CCc1cc(OC)ccc1-c1ccc(CC(CNC(CCCc2ccccc2)C(N)=O)NC(=O)[C@H](CC(=O)O)NC(=O)[C@H](CO)NC(=O)[C@@H](NC(=O)C(C)(Cc2ccccc2F)NC(=O)[C@@H](NC(=O)CNC(=O)C(CCC#N)NC(=O)C(C)(C)NC(=O)[C@@H](N)Cc2c[nH]cn2)[C@H](C)O)[C@H](C)O)cc1 (single isomer, unassigned) [Seq. ID. 190] | – | – | – | – | 183 ± 2.1 | 118 ± 3.4 | 113 ± 4.6 | 111 ± 2.8 | – | – | – | – | blood glucose levels ([1]; 10 nM/kg i.p., 0 min): 182 ± 2.1; blood glucose levels ([1]; 10 nM/kg i.p., 30 min): 121 ± 2.9; blood glucose levels ([1]; 10 nM/kg i.p., 60 min): 130 ± 3.1; blood glucose levels ([1]; 10 nM/kg i.p., 120 min): 138 ± 2.4
9 | CCc1cc(OC)ccc1-c1ccc(CC(CNC(CCCc2ccccc2)C(N)=O)NC[C@H](CC(=O)O)NC(=O)[C@H](CO)NC(=O)[C@@H](NC(=O)C(C)(Cc2ccccc2F)NC(=O)[C@@H](NC(=O)CNC(=O)C(CCC#N)NC(=O)C(C)(C)NC(=O)[C@@H](N)Cc2c[nH]cn2)[C@H](C)O)[C@H](C)O)cc1 (single isomer, unassigned) [Seq. ID. 202] | 183 ± 5.1 | 122 ± 3.1 | 130 ± 2.3 | 148 ± 2.2 | 184 ± 2.5 | 115 ± 3.6 | 113 ± 4.2 | 110 ± 2.4 | – | – | – | – | –
10 | CCc1cc(OC)ccc1-c1ccc(CC(NC(=O)[C@H](CC(=O)O)NC(=O)[C@H](CO)NC(=O)[C@@H](NC(=O)C(C)(Cc2ccccc2F)NC(=O)[C@@H](NC(=O)CNC(=O)C(CCC#N)NC(=O)C(C)(C)NC(=O)[C@H](Cc2c[nH]cn2)NC(C)=O)[C@@H](C)O)[C@@H](C)O)C(=O)NC(CCCc2ccccc2F)C(N)=O)cc1 (single isomer, unassigned) [Seq. ID. 207] | 184 ± 5.0 | 122 ± 3.8 | 128 ± 2.1 | 149 ± 2.3 | 183 ± 2.4 | 116 ± 3.1 | 112 ± 4.8 | 110 ± 2.5 | – | – | – | – | –
